Values quoted from earlier work as cited in patent publication US11576952B2, “Injectable solution at pH 7 comprising at least one basal insulin for which the pI is from 5.8 to 8.5 and a co-polyamino acid bearing carboxylate charges and hydrophobic radicals” (ADOCIA, priority 2017, dated 2023).

Conditions: background description

In the case of insulin glargine, the “Period over which the blood sugar lowering effect is quasi-constant” value is given as 24 h.
